Measured values reported in patent publication US20230278972A1, “SUBSTITUTED HALOALKYL SULFONANILIDE HERBICIDES” (FMC Corporation, priority 2020, published 2023).

Experiments:
Assay type in all cases: in vivo
[1] = system: blackgrass (Alopecurus myosuroides); experiment: Test A1 preemergence, blackgrass
Outline: (§1)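 Plants grown in pots of loam/sand mix; preemergence = soil-directed spray on seeded pots, postemergence = spray at 1–2 leaves, height 2–10 cm; test chemicals formulated in non-phytotoxic solvent with surfactant.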

corn (Zea mays) [2] = experiment: Test A1 preemergence, corn
Outline: (§2)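 Plants were grown in a loam soil/sand blend, with test chemicals formulated in a non-phytotoxic solvent mixture containing surfactant. Preemergence treatment (corn) was a directed soil spray at planting. Postemergence treatment was applied to plants 2 to 10 cm tall at the one- to two-leaf stage.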

[3] = system: Foxtail, Giant (giant foxtail, Setaria faberi); experiment: Test A1 preemergence, Foxtail, Giant
Outline: as §1

[4] = system: goosegrass (Eleusine indica); experiment: Test A1 preemergence, goosegrass
Outline: as §1

kochia (Bassia scoparia) [5] = experiment: Test A1 preemergence, kochia
Outline: as §1

[6] = system: Oat, Wild (wild oat, Avena fatua); experiment: Test A1 preemergence, Oat, Wild
Outline: as §1

[7] = system: Pigweed, Palmer (palmer amaranth, palmer pigweed, Amaranthus palmeri); experiment: Test A1 preemergence, Pigweed, Palmer
Outline: as §1

[8] = system: ragweed (common ragweed, Ambrosia artemisiifolia); experiment: Test A1 preemergence, ragweed
Outline: as §1

[9] = system: Ryegrass, Italian (Italian ryegrass, Lolium multiflorum); experiment: Test A1 preemergence, Ryegrass, Italian
Outline: as §1

soybean (Glycine max) [10] = experiment: Test A1 preemergence, soybean
Outline: as §1

[11] = system: wheat (Triticum aestivum); experiment: Test A1 preemergence, wheat
Outline: as §1

[12] = system: blackgrass (Alopecurus myosuroides); experiment: Test A1 postemergence, blackgrass; settings: Postemergence, 0 to 100 scale (0 no effect, 100 complete control)
Outline: (§3)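 Test compounds were formulated in a non-phytotoxic solvent mixture containing a surfactant. For preemergence, seeds sown in a loam soil–sand blend received a directed soil spray. For postemergence, potted plants in the same soil, 2 to 10 cm tall at the one- to two-leaf stage, were sprayed.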

corn (Zea mays) [13] = experiment: Test A1 postemergence, corn; settings: Postemergence
Outline: as §1

[14] = system: Foxtail, Giant (giant foxtail, Setaria faberi); experiment: Test A1 postemergence, Foxtail, Giant; settings: Postemergence
Outline: as §3

[15] = system: goosegrass (Eleusine indica); experiment: Test A1 postemergence, goosegrass; settings: Postemergence
Outline: as §3

kochia (Bassia scoparia) [16] = experiment: Test A1 postemergence, kochia; settings: Postemergence
Outline: as §3

[17] = system: Oat, Wild (wild oat, Avena fatua); experiment: Test A1 postemergence, Oat, Wild; settings: Postemergence
Outline: as §2

[18] = system: Pigweed, Palmer (palmer amaranth, palmer pigweed, Amaranthus palmeri); experiment: Test A1 postemergence, Pigweed, Palmer; settings: Postemergence
Outline: as §2

[19] = system: ragweed (common ragweed, Ambrosia artemisiifolia); experiment: Test A1 postemergence, ragweed; settings: Postemergence
Outline: as §2

[20] = system: Ryegrass, Italian (Italian ryegrass, Lolium multiflorum); experiment: Test A1 postemergence, Ryegrass, Italian; settings: Postemergence
Outline: as §3

soybean (Glycine max) [21] = experiment: Test A1 postemergence, soybean; settings: Postemergence
Outline: as §3

[22] = system: wheat (Triticum aestivum); experiment: Test A1 postemergence, wheat; settings: Postemergence
Outline: as §3

[23] = system: galium (catchweed bedstraw, Galium aparine); experiment: Test A1 postemergence, galium; settings: Postemergence
Outline: as §3

[24] = system: horseweed (Erigeron canadensis); experiment: Test A1 postemergence, horseweed; settings: Postemergence
Outline: as §3

[25] = system: barnyardgrass (Echinochloa crus-galli); experiment: Test B1 flooded paddy test, barnyardgrass; settings: 250 g ai/ha, Flood, applied to paddy water, 2-leaf stage, visually evaluated after 10 to 14 days
From the text: (§4) A dash (-) response means no test result.

[26] = system: ducksalad (Heteranthera limosa); experiment: Test B1 flooded paddy test, ducksalad; settings: 250 g ai/ha, Flood, applied to paddy water, 2-leaf stage, visually evaluated after 10 to 14 days
From the text: as §4

rice (Oryza sativa) = experiment: Test B1 flooded paddy test, rice; settings: 250 g ai/ha, Flood, applied to paddy water, 2-leaf stage, visually evaluated after 10 to 14 days
From the text: as §4

[27] = 31 g ai/ha, 0 to 100 scale (0 no effect, 100 complete control)
[28] = 125 g ai/ha, 0 to 100 scale, 0 no effect, 100 complete control
[29] = 31 g ai/ha, 0 to 100 scale (0 no effect, 100 complete control), 10 days

In the case of Cc1cc(C)c(N(COC(=O)C(C)(C)C)S(=O)(=O)C(F)(F)F)cc1C(=O)N1CCC(F)(F)CC1 [Compound 350], the “Plant response rating, Blackgrass” value [1, 27] is reported as 0, the “Plant response rating, Blackgrass” value [1, 28] is reported as 0 and the “Plant response rating, Corn” value (corn (Zea mays) [2]; [27]) is reported as 0. For the same compound, the “Plant response rating, Corn” value (corn (Zea mays) [2]; [28]) was 0, the “Plant response rating, Foxtail, Giant” value [3, 27] was 0 and the “Plant response rating, Foxtail, Giant” value [3, 28] was 80. The “Plant response rating, Goosegrass” value [4, 27] was 30, the “Plant response rating, Goosegrass” value [4, 28] was 90 and the “Plant response rating, Kochia” value (kochia (Bassia scoparia) [5]; [27]) was 20. The “Plant response rating, Kochia” value (kochia (Bassia scoparia) [5]; [28]) was 70, the “Plant response rating, Oat, Wild” value [6, 27] was 0 and the “Plant response rating, Oat, Wild” value [6, 28] was 10. For the same compound, the “Plant response rating, Pigweed, Palmer” value [7, 27] was 20, the “Plant response rating, Pigweed, Palmer” value [7, 28] was 60 and the “Plant response rating, Ragweed” value [8, 27] was 20. For the same compound, the “Plant response rating, Ragweed” value [8, 28] was 80, the “Plant response rating, Ryegrass, Italian” value [9, 27] was 30 and the “Plant response rating, Ryegrass, Italian” value [9, 28] was 30. The “Plant response rating, Soybean” value (soybean (Glycine max) [10]; [27]) was 0, the “Plant response rating, Soybean” value (soybean (Glycine max) [10]; [28]) was 0 and the “Plant response rating, Wheat” value [11, 27] was 0. The “Plant response rating, Wheat” value [11, 28] was 10, the “Plant response rating, Blackgrass” value ([12]; 31 g ai/ha, 10 days) was 0 and the “Plant response rating, Blackgrass” value ([12]; 125 g ai/ha) was 0. The “Plant response rating, Corn” value (corn (Zea mays) [13]; [29]) was 0, the “Plant response rating, Corn” value (corn (Zea mays) [13]; 125 g ai/ha, 0 to 100 scale) was 0 and the “Plant response rating, Foxtail, Giant” value [14, 29] was 10. For the same compound, the “Plant response rating, Foxtail, Giant” value ([14]; 125 g ai/ha, 0 to 100 scale) was 30, the “Plant response rating, Goosegrass” value [15, 29] was 10 and the “Plant response rating, Goosegrass” value ([15]; 125 g ai/ha, 0 to 100 scale) was 80. The “Plant response rating, Kochia” value (kochia (Bassia scoparia) [16]; [29]) was 0, the “Plant response rating, Kochia” value (kochia (Bassia scoparia) [16]; 125 g ai/ha, 0 to 100 scale) was 60 and the “Plant response rating, Oat, Wild” value [17, 29] was 0. For the same compound, the “Plant response rating, Oat, Wild” value ([17]; 125 g ai/ha, 0 to 100 scale) was 0, the “Plant response rating, Pigweed, Palmer” value [18, 29] was 30 and the “Plant response rating, Pigweed, Palmer” value ([18]; 125 g ai/ha, 0 to 100 scale) was 40. The “Plant response rating, Ragweed” value [19, 29] was 80, the “Plant response rating, Ragweed” value ([19]; 125 g ai/ha, 0 to 100 scale) was 90 and the “Plant response rating, Ryegrass, Italian” value [20, 29] was 30. For the same compound, the “Plant response rating, Ryegrass, Italian” value ([20]; 125 g ai/ha, 0 to 100 scale) was 30, the “Plant response rating, Soybean” value (soybean (Glycine max) [21]; [29]) was 10 and the “Plant response rating, Soybean” value (soybean (Glycine max) [21]; 125 g ai/ha, 0 to 100 scale) was 40. For the same compound, the “Plant response rating, Wheat” value [22, 29] was 0, the “Plant response rating, Wheat” value ([22]; 125 g ai/ha, 0 to 100 scale) was 10 and the “Plant response rating, Galium” value [23, 29] was 70. The “Plant response rating, Galium” value ([23]; 125 g ai/ha, 0 to 100 scale) was 90, the “Plant response rating, Horseweed” value [24, 29] was 90 and the “Plant response rating, Horseweed” value ([24]; 125 g ai/ha, 0 to 100 scale) was 100. For the same compound, the “Plant response rating, Barnyardgrass (0 to 100 scale, 0 is no effect, 100 is complete control)” value [25] was 90, the “Plant response rating, Ducksalad (0 to 100 scale, 0 is no effect, 100 is complete control)” value [26] was 80 and the “Plant response rating, Rice (0 to 100 scale, 0 is no effect, 100 is complete control)” value (rice (Oryza sativa)) was 35.

In the case of Cc1c(NS(=O)(=O)C(F)(F)F)cc(C(=O)N2CCC(F)(F)CC2)c(C)c1C [Compound 357], the “Plant response rating, Blackgrass” value [1, 27] is reported as 0, the “Plant response rating, Blackgrass” value [1, 28] is reported as 10 and the “Plant response rating, Corn” value (corn (Zea mays) [2]; [27]) is reported as 10. For the same compound, the “Plant response rating, Corn” value (corn (Zea mays) [2]; [28]) was 90, the “Plant response rating, Foxtail, Giant” value [3, 27] was 10 and the “Plant response rating, Foxtail, Giant” value [3, 28] was 90. For the same compound, the “Plant response rating, Goosegrass” value [4, 27] was 80, the “Plant response rating, Goosegrass” value [4, 28] was 100 and the “Plant response rating, Kochia” value (kochia (Bassia scoparia) [5]; [27]) was 20. For the same compound, the “Plant response rating, Kochia” value (kochia (Bassia scoparia) [5]; [28]) was 40, the “Plant response rating, Oat, Wild” value [6, 27] was 0 and the “Plant response rating, Oat, Wild” value [6, 28] was 0. For the same compound, the “Plant response rating, Pigweed, Palmer” value [7, 27] was 40, the “Plant response rating, Pigweed, Palmer” value [7, 28] was 100 and the “Plant response rating, Ragweed” value [8, 27] was 0. For the same compound, the “Plant response rating, Ragweed” value [8, 28] was 80, the “Plant response rating, Ryegrass, Italian” value [9, 27] was 0 and the “Plant response rating, Ryegrass, Italian” value [9, 28] was 30. For the same compound, the “Plant response rating, Soybean” value (soybean (Glycine max) [10]; [27]) was 0, the “Plant response rating, Soybean” value (soybean (Glycine max) [10]; [28]) was 20 and the “Plant response rating, Wheat” value [11, 27] was 0. For the same compound, the “Plant response rating, Wheat” value [11, 28] was 10, the “Plant response rating, Blackgrass” value ([12]; 31 g ai/ha, 10 days) was 0 and the “Plant response rating, Blackgrass” value ([12]; 125 g ai/ha) was 0. The “Plant response rating, Corn” value (corn (Zea mays) [13]; [29]) was 0, the “Plant response rating, Corn” value (corn (Zea mays) [13]; 125 g ai/ha, 0 to 100 scale) was 0 and the “Plant response rating, Foxtail, Giant” value [14, 29] was 0. The “Plant response rating, Foxtail, Giant” value ([14]; 125 g ai/ha, 0 to 100 scale) was 20, the “Plant response rating, Goosegrass” value [15, 29] was 0 and the “Plant response rating, Goosegrass” value ([15]; 125 g ai/ha, 0 to 100 scale) was 70. For the same compound, the “Plant response rating, Kochia” value (kochia (Bassia scoparia) [16]; [29]) was 0, the “Plant response rating, Kochia” value (kochia (Bassia scoparia) [16]; 125 g ai/ha, 0 to 100 scale) was 30 and the “Plant response rating, Oat, Wild” value [17, 29] was 0. The “Plant response rating, Oat, Wild” value ([17]; 125 g ai/ha, 0 to 100 scale) was 0, the “Plant response rating, Pigweed, Palmer” value [18, 29] was 0 and the “Plant response rating, Pigweed, Palmer” value ([18]; 125 g ai/ha, 0 to 100 scale) was 50. For the same compound, the “Plant response rating, Ragweed” value [19, 29] was 80, the “Plant response rating, Ragweed” value ([19]; 125 g ai/ha, 0 to 100 scale) was 80 and the “Plant response rating, Ryegrass, Italian” value [20, 29] was 20. The “Plant response rating, Ryegrass, Italian” value ([20]; 125 g ai/ha, 0 to 100 scale) was 20, the “Plant response rating, Soybean” value (soybean (Glycine max) [21]; [29]) was 40 and the “Plant response rating, Soybean” value (soybean (Glycine max) [21]; 125 g ai/ha, 0 to 100 scale) was 90. For the same compound, the “Plant response rating, Wheat” value [22, 29] was 0, the “Plant response rating, Wheat” value ([22]; 125 g ai/ha, 0 to 100 scale) was 0 and the “Plant response rating, Galium” value [23, 29] was 90. For the same compound, the “Plant response rating, Galium” value ([23]; 125 g ai/ha, 0 to 100 scale) was 100, the “Plant response rating, Horseweed” value [24, 29] was 20 and the “Plant response rating, Horseweed” value ([24]; 125 g ai/ha, 0 to 100 scale) was 80. For the same compound, the “Plant response rating, Barnyardgrass (0 to 100 scale, 0 is no effect, 100 is complete control)” value [25] was 45, the “Plant response rating, Ducksalad (0 to 100 scale, 0 is no effect, 100 is complete control)” value [26] was 60 and the “Plant response rating, Rice (0 to 100 scale, 0 is no effect, 100 is complete control)” value (rice (Oryza sativa)) was 10.
